# US20240150293A1, “SPIROCYCLOHEXANE DERIVATIVES, PHARMACEUTICAL COMPOSITIONS CONTAINING THEM AND THEIR USES AS ANTI-APOPTOTIC INHIBITORS” (LES LABORATOIRES SERVIER, priority 2021, published 2024)
# Where two headings read alike, the source gives them in different places.
# Legend:
# Mcl-1 protein = Mcl-1 protein (UniProtKB Q07820) (Homo sapiens (Human), UniProt Q07820); assay: Inhibition of Mcl-1 by the fluorescence polarisation assay (Example A, Method A); format: binding; details: fluorescence polarization assay
# How it was run: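 Protein (5 nM) and fluorescein-tagged peptide tracer (1 nM) incubated with 11-point compound series for 2 h at room temperature in HEPES/NaCl/Tween 20 buffer, pH 7.4, 5% DMSO. Displacement read as decrease in polarisation; IC50 fitted by 4-parameter logistic, converted to Ki (cKi or eKi).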
# [1] = test system: H929 multiple myeloma tumor line; assay: In vitro cytotoxicity, MTT assay (Example B, Method A); format: cell-based; details: H929 cells, 48 hours exposure, read-out: C50
# Protocol: The cytotoxicity studies were carried out on the H929 multiple myeloma tumor line.
# The cells are distributed onto microplates and exposed to the test compounds for 48 hours. The cell viability is then quantified by a colorimetric assay, the Microculture Tetrazolium Assay (Carmichael et al, Cancer Res. 1987, 47, 939-942).
# The results are expressed in C50 which means concentration corresponding to […] of effect/inhibition.
# Sequence of Mcl-1 protein (Q07820 whole entry): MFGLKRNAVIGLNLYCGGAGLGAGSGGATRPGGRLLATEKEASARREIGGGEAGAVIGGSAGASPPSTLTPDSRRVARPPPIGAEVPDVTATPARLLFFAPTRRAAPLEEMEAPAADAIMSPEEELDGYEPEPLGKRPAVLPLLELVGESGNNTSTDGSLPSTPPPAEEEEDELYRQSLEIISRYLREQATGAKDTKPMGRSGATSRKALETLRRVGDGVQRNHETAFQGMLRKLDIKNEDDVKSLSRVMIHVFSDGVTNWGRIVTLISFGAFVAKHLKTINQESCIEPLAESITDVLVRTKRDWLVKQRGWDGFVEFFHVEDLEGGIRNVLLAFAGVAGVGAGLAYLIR
Structure (SMILES),Ki (Mcl-1 protein) [µM],IC50 [1] [µM],"IC50 ([1]; Homo sapiens, NCI-H929, 48 h) [µM]"
"CC(C)C(COc1ccccc1)CC1Cc2ccccc2[C@]12CC[C@@](Nc1cccc(Cl)c1)(C(=O)O)CC2 (single isomer, unassigned) [Example 529, (1r,4r)-4-(3-chloroanilino)-2′-[3-methyl-2-(phenoxymethyl)butyl]-2′,3′-dihydrospiro[cyclohexane-1,1′-indene]-4-carboxylic acid]",4.31,25.3,–
"CC(C)C(COc1cccnc1)CC1Cc2ccccc2[C@]12CC[C@@](Nc1cccc(Cl)c1)(C(=O)O)CC2 (single isomer, unassigned) [Example 527, (1r,4r)-4-(3-chloroanilino)-2′-(3-methyl-2-{[(pyridin-3-yl)oxy]methyl}butyl)-2′,3′-dihydrospiro[cyclohexane-1,1′-indene]-4-carboxylic acid]",8.94,16.4,–
"O=C(O)[C@]1(Nc2cccc(Cl)c2)CC[C@@]2(CC1)c1ccccc1CC2CCCOc1ncncc1C1CC1 (mixture of isomers) [Example 465, (1r,4r)-4-(3-chloroanilino)-2′-{3-[(5-cyclopropylpyrimidin-4-yl)oxy]propyl}-2′,3′-dihydrospiro[cyclohexane-1,1′-indene]-4-carboxylic acid]",0.0754,–,9.6
"CC(C)C(COc1cccnc1)CC1Cc2ccccc2[C@]12CC[C@@](Nc1cccc(Cl)c1)(C(=O)O)CC2 (single isomer, unassigned) [Example 526, (1r,4r)-4-(3-chloroanilino)-2′-(3-methyl-2-{[(pyridin-3-yl)oxy]methyl}butyl)-2′,3′-dihydrospiro[cyclohexane-1,1′-indene]-4-carboxylic acid]",1.86,–,30
"CNc1cccc(OC[C@H](C)C[C@H]2Cc3ccccc3[C@]23CC[C@@](Nc2cccc(Cl)c2)(C(=O)O)CC3)c1 [Example 569, (1r,2′S,4S)-4-(3-chloroanilino)-2′-{(2R)-2-methyl-3-[3-(methylamino)phenoxy]propyl}-2′,3′-dihydrospiro[cyclohexane-1,1′-indene]-4-carboxylic acid]",0.0743,–,1.72
"Cc1cc2c(OCCC[C@H]3Cc4ccccc4[C@]34CC[C@@](Nc3cccc(Cl)c3)(C(=O)O)CC4)cccc2[nH]1 [Example 482, (1r,2′S,4S)-4-(3-chloroanilino)-2′-{3-[(2-methyl-1H-indol-4-yl)oxy]propyl}-2′,3′-dihydrospiro[cyclohexane-1,1′-indene]-4-carboxylic acid]",0.317,–,12.4
"O=C(O)[C@]1(Nc2cccc(Cl)c2)CC[C@@]2(CC1)c1ccccc1C[C@H]2c1cccc(OCc2ccccc2)c1 [Example 332, (1r,2′S,4S)-2′-[3-(benzyloxy)phenyl]-4-(3-chloroanilino)-2′,3′-dihydrospiro[cyclohexane-1,1′-indene]-4-carboxylic acid]",0.475,–,16.4
"O=C(O)[C@]1(Nc2cccc(Cl)c2)CC[C@@]2(CC1)c1ccccc1C[C@H]2c1cccc(Oc2ccccc2)c1 [Example 323, (1r,2′S,4S)-4-(3-chloroanilino)-2′-(3-phenoxyphenyl)-2′,3′-dihydrospiro[cyclohexane-1,1′-indene]-4-carboxylic acid]",0.106,–,10.5
"O=C(O)[C@]1(Nc2cccc(Cl)c2)CC[C@@]2(CC1)c1ccccc1C[C@@H]2C[C@@H](COc1ccccc1)c1ccccc1 [Example 556, (1r,2′S,4S)-4-(3-chloroanilino)-2′-[(2R)-3-phenoxy-2-phenylpropyl]-2′,3′-dihydrospiro[cyclohexane-1,1′-indene]-4-carboxylic acid]",7.19,–,19.3
"O=C(O)[C@]1(Nc2cccc(Cl)c2)CC[C@@]2(CC1)c1ccccc1C[C@H]2C[C@H](COc1cccnc1)c1ccccc1 [Example 550, (1r,2′R,4R)-4-(3-chloroanilino)-2′-{(2S)-2-phenyl-3-[(pyridin-3-yl)oxy]propyl}-2′,3′-dihydrospiro[cyclohexane-1,1′-indene]-4-carboxylic acid]",5.28,–,30
"O=C1c2ccccc2[C@]2(CC[C@@](Nc3cccc(Cl)c3)(C(=O)O)CC2)N1CCCOc1ccccc1 [Example 34, (1s,4s)-4-(3-chloroanilino)-3′-oxo-2′-(3-phenoxypropyl)-2′,3′-dihydrospiro[cyclohexane-1,1′-isoindole]-4-carboxylic acid]",0.648,–,30
"CC(C)C(COc1ccnc2ccsc12)CC1Cc2ccccc2[C@]12CC[C@@](Nc1cccc(Cl)c1)(C(=O)O)CC2 (single isomer, unassigned) [Example 522, (1r,4r)-4-(3-chloroanilino)-2′-(3-methyl-2-{[(thieno[3,2-b]pyridin-7-yl)oxy]methyl}butyl)-2′,3′-dihydrospiro[cyclohexane-1,1′-indene]-4-carboxylic acid]",6.36,–,17.1
"CC(C)C(COc1ccncc1)CC1Cc2ccccc2[C@]12CC[C@@](Nc1cccc(Cl)c1)(C(=O)O)CC2 (single isomer, unassigned) [Example 532, (1r,4r)-4-(3-chloroanilino)-2′-(3-methyl-2-{[(pyridin-4-yl)oxy]methyl}butyl)-2′,3′-dihydrospiro[cyclohexane-1,1′-indene]-4-carboxylic acid]",0.809,12.6,–
"Cc1cnccc1OCCC[C@H]1Cc2ccccc2[C@]12CC[C@@](Nc1cccc(Cl)c1)(C(=O)O)CC2 [Example 449, (1r,2′S,4S)-4-(3-chloroanilino)-2′-{3-[(3-methylpyridin-4-yl)oxy]propyl}-2′,3′-dihydrospiro[cyclohexane-1,1′-indene]-4-carboxylic acid]",0.08,–,9.27
"O=C(O)[C@]1(Nc2cccc(Cl)c2)CC[C@@]2(CC1)c1ccccc1CN2CCCOc1ccccc1 [Example 35, (1s,4s)-4-(3-chloroanilino)-2′-(3-phenoxypropyl)-2′,3′-dihydrospiro[cyclohexane-1,1′-isoindole]-4-carboxylic acid]",0.332,–,30

# Now those with a lower Ki (Mcl-1 protein), led by results:
Ki (Mcl-1 protein) [µM],Structure (SMILES),IC50 [1] [µM],"IC50 ([1]; Homo sapiens, NCI-H929, 48 h) [µM]"
0.0553,"O=C(O)[C@]1(Nc2cccc(Cl)c2)CC[C@@]2(CC1)c1ccccc1CC2CCCOc1ccncc1 (stereo partly drawn) [Example 426, (1r,4r)-4-(3-chloroanilino)-2′-{3-[(pyridin-4-yl)oxy]propyl}-2′,3′-dihydrospiro[cyclohexane-1,1′-indene]-4-carboxylic acid]",–,16.5
0.0491,"O=C(O)[C@]1(Nc2cccc(Cl)c2)CC[C@@]2(CC1)c1ccccc1CC2CCCOc1ccncc1C1CC1 (stereo partly drawn) [Example 464, (1r,4r)-4-(3-chloroanilino)-2′-{3-[(3-cyclopropylpyridin-4-yl)oxy]propyl}-2′,3′-dihydrospiro[cyclohexane-1,1′-indene]-4-carboxylic acid]",–,14.8
0.0558,"O=C(O)[C@]1(Nc2cccc(Cl)c2)CC[C@]2(CC1)C(C#CCOc1ccccc1)=Cc1ccccc12 [Example 172, (1s,4s)-4-(3-chloroanilino)-2′-(3-phenoxyprop-1-yn-1-yl)spiro[cyclohexane-1,1′-indene]-4-carboxylic acid]",–,18.7
0.0145,"C[C@@H](COc1ncnc2c1CCC2)CC1Cc2ccccc2[C@]12CC[C@@](Nc1cccc(Cl)c1)(C(=O)O)CC2 (stereo partly drawn) [Example 593, (1r,4R)-4-(3-chloroanilino)-2′-{(2R)-3-[(6,7-dihydro-5H-cyclopenta[d]pyrimidin-4-yl)oxy]-2-methylpropyl}-2′,3′-dihydrospiro[cyclohexane-1,1′-indene]-4-carboxylic acid]",–,2.01
0.03,"O=C(O)[C@]1(Nc2cccc(Cl)c2)CC[C@@]2(CC1)c1ccccc1CC2CCCOc1ccnc2c1CCC2 (stereo partly drawn) [Example 452, (1r,4r)-4-(3-chloroanilino)-2′-{3-[(6,7-dihydro-5H-cyclopenta[b]pyridin-4-yl)oxy]propyl}-2′,3′-dihydrospiro[cyclohexane-1,1′-indene]-4-carboxylic acid]",–,2.44
0.0192,"C[C@@H](COc1ccnc2ccsc12)C[C@@H]1Cc2ccccc2[C@]12CC[C@@](Nc1cccc(Cl)c1)(C(=O)O)CC2 [Example 590, (1r,2′R,4R)-4-(3-chloroanilino)-2′-{(2R)-2-methyl-3-[(thieno[3,2-b]pyridin-7-yl)oxy]propyl}-2′,3′-dihydrospiro[cyclohexane-1,1′-indene]-4-carboxylic acid]",–,1.17
0.0686,"O=C(O)[C@]1(Nc2cccc(Cl)c2)CC[C@@]2(CC1)c1ccccc1C[C@H]2CCCOc1ccnc2ccsc12 [Example 439, (1r,2′R,4R)-4-(3-chloroanilino)-2′-{3-[(thieno[3,2-b]pyridin-7-yl)oxy]propyl}-2′,3′-dihydrospiro[cyclohexane-1,1′-indene]-4-carboxylic acid]",–,3.88
0.047,"O=C(O)[C@]1(Nc2cccc(Cl)c2)CC[C@@]2(CC1)c1ccccc1C[C@@H]2CCCOc1ccnc2ccsc12 [Example 440, (1r,2′S,4S)-4-(3-chloroanilino)-2′-{3-[(thieno[3,2-b]pyridin-7-yl)oxy]propyl}-2′,3′-dihydrospiro[cyclohexane-1,1′-indene]-4-carboxylic acid]",–,3.48
0.0203,"C[C@@H](COc1ccnc2c1CC(C)(C)CC2)C[C@H]1Cc2ccccc2[C@]12CC[C@@](Nc1cccc(Cl)c1)(C(=O)O)CC2 [Example 652, (1r,2′S,4S)-4-(3-chloroanilino)-2′-{(2R)-3-[(6,6-dimethyl-5,6,7,8-tetrahydroquinolin-4-yl)oxy]-2-methylpropyl}-2′,3′-dihydrospiro[cyclohexane-1,1′-indene]-4-carboxylic acid]",–,4.71
